Data published in patent US20090062899A1, “COMPOSITE STENT WITH POLYMERIC COVERING AND BIOACTIVE COATING” (NFOCUS NEUROMEDICAL, INC., priority 2001, published 2009).

Tested on: endothelial cells
Experiment: cell growth on surfaces carrying the bioactive (P15) coating
Type: cell-based
Conditions: polymer sleeve covered with the peptide
Text: Chemical/biological testing such as MA (amino acid analysis), in vitro cell cultures followed by SEM (scanning electron microscopy), and in vivo testing can be used for evaluating the coatings of the present invention.

H-Gly-Thr-Pro-Gly-Pro-Gln-Gly-Ile-Ala-Gly-Gln-Arg-Gly-Val-Val-OH (H-GTPGPQGIAGQRGVV-OH; also: covalently bound coating on PTFE) [P15]
endothelial cell growth: stimulated
